Assay results published in ChEMBL document CHEMBL1201862, “PubChem BioAssay data set” (2004).
Calls of active or inactive are those of the source.

What was measured:
[1] = NIH-3T3 fibroblast cytotoxicity, dose response, cytotoxicity control, cell-based, fluorescence, Alamar Blue, secondary assay (AID 2327); format: functional;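 note: NIH-3T3 mouse fibroblasts cultured with fluconazole at 8 µg/mL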
[2] = tested on: INS1; experiment: INS-1E survival protection against cytokine death – cell-based, luminescence, retest, dose response (AID 449756); format: functional; conditions: Rattus norvegicus;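 note: cell death triggered by IL-1 beta plus TNF-alpha plus IFN-gamma mixture; protective hits raise ATP signal compared with cytokine alone wells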
[3] = fluconazole-exposed Candida albicans growth modulators – fluorescence, retest, confirmation (AID 2467); format: functional, cell-based
[4] = viability of uninfected HEp-2 cells – cell-based, HTS, cytotoxicity control for RSV inhibitor project, dose response (AID 2410); format: functional; conditions: human respiratory syncytial virus
[5] = molecular target: Cytochrome P450 2D6 (Homo sapiens, UniProt P10635);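 note: CYP2D6 member of a cytochrome P450 panel assay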
[6] = molecular target: Cytochrome P450 3A4 (Homo sapiens, UniProt P08684);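 note: CYP3A4 tested as one member of a cytochrome P450 panel screen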
[7] = molecular target: T1, Heat shock factor protein 1 (Mus musculus, UniProt P38532); experiment: enhancement of HSF1-driven luciferase signal – cell-based, NIH3T3, luminescence, dose retest, confirmation (AID 435004); format: functional;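 note: stress induced by proteasome inhibitor MG132 added 30 min after compound; luciferase reporter driven by HSF1 response element in NIH3T3 cells; actives raise luminescence as potentiators of the MG132 stress response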
T1 sequence (P38532 whole entry): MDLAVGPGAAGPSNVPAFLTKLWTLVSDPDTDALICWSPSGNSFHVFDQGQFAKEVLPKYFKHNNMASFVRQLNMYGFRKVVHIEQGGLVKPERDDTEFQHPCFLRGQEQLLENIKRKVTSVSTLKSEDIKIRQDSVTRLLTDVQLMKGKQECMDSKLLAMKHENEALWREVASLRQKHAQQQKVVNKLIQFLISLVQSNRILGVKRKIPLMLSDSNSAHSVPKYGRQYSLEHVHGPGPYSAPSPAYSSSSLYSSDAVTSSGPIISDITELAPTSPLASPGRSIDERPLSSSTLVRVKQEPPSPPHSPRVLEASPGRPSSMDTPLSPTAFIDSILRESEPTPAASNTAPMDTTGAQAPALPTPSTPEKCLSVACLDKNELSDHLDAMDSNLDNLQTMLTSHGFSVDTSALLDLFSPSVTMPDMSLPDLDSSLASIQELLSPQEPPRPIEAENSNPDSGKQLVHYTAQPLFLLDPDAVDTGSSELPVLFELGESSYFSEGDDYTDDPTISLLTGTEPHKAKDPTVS

[8] = Luminescence Cell-Based Dose Confirmation HTS to Identify Inhibitors of Platelet Dense Granule Release. [Related pubchem assays: 1663 (Primary HTS), 1678 (Summary of Project)]; format: functional
[9] = molecular target: Luciferin 4-monooxygenase (Photinus pyralis, UniProt P08659); experiment: inhibition of purified Photinus pyralis luciferase – biochemical, luminescence, dose response (AID 1891)
[10] = molecular target: Cytochrome P450 2C19 (Homo sapiens, UniProt P33261); experiment: Cytochrome panel assay with activity outcomes. Panel member name: p450-cyp2c19 Compounds with AC50 equal or less than 10 uM are considered active; format: functional; conditions: read-out: AC50
[11] = molecular target: T2, Cytochrome P450 1A2 (Homo sapiens, UniProt P05177);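 note: PubChem cytochrome P450 panel assay, CYP1A2 panel member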
T2 sequence (P05177 whole entry): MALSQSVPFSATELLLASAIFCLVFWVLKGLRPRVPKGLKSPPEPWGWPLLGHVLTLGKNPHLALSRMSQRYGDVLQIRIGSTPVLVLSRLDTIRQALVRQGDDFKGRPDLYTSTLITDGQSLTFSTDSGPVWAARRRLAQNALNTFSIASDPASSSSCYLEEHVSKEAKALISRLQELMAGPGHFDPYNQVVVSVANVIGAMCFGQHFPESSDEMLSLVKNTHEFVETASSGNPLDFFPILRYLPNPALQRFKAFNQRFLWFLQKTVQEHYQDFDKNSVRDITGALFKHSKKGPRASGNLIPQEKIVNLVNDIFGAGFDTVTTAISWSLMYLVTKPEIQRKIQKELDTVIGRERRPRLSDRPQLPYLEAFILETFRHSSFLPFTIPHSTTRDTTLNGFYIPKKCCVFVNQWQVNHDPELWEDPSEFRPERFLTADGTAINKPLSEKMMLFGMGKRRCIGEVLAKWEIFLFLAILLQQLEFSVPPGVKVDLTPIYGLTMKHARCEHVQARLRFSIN

[12] = molecular target: Cytochrome P450 2C9 (Homo sapiens, UniProt P11712)
[13] = NIH3T3 cell viability loss – ATP luminescence, mouse fibroblasts, counter-screen, dose response (AID 2010); format: functional, cell-based;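 note: cells exposed to compound for about 90 hours before reading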
[14] = Trypanosoma cruzi growth suppression in host cells – NIH3T3 host cells, beta-gal luminescence, confirmation (AID 2044); format: functional, cell-based;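 note: intracellular parasites grown in NIH/3T3 mouse fibroblasts as host cells; luminescent beta-galactosidase reporter signal from transgenic T. cruzi replicating inside host cells; inhibitors lower the luminescence signal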
[15] = molecular target: FAD-linked sulfhydryl oxidase ALR (Homo sapiens, UniProt P55789); experiment: ALR-catalysed DTT oxidation blockers – biochemical, H2O2 detection, luminescence, cherry-pick, dose response (AID 493248)
[16] = tested on: Streptococcus; experiment: GAS UMAA2166 growth inhibition – luminescence, BacTiterGlo, counter-screen for streptokinase expression inhibitor project, dose response (AID 1915); format: functional, organism-based;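 note: potency for reduction of bacterial viability or growth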
[17] = molecular target: T3, Streptokinase A (Streptococcus pyogenes serotype M1, UniProt P10520); experiment: viability-normalized secreted streptokinase activity reduction – plasminogen activation absorbance, OD405, dose response (AID 1914); format: functional, Streptococcus pyogenes M1 GAS;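 note: secreted streptokinase activity via plasminogen activation per viability signal from cell pellet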
T3 sequence (P10520 whole entry): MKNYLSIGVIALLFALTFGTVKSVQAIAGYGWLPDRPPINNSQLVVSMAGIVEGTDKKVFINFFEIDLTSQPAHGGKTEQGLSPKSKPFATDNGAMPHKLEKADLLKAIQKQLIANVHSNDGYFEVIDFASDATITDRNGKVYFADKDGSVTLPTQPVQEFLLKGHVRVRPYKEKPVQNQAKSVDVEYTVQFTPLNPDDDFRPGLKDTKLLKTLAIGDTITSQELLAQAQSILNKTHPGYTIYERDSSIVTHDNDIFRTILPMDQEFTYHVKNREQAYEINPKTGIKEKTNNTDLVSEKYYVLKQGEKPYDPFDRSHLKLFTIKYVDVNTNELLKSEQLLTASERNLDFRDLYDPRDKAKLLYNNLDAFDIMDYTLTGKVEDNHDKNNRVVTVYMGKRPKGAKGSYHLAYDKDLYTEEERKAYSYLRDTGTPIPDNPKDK

[18] = tested on: Streptococcus sp. 'group A'; experiment: Streptococcus pyogenes SK(-)GAS viability under kanamycin – luminescence, BacTiterGlo, confirmation, counter-screen for streptokinase expression inhibitor project, dose response (AID 1900); format: functional, organism-based

Chain of Cytochrome P450 2C19 (P33261 whole entry): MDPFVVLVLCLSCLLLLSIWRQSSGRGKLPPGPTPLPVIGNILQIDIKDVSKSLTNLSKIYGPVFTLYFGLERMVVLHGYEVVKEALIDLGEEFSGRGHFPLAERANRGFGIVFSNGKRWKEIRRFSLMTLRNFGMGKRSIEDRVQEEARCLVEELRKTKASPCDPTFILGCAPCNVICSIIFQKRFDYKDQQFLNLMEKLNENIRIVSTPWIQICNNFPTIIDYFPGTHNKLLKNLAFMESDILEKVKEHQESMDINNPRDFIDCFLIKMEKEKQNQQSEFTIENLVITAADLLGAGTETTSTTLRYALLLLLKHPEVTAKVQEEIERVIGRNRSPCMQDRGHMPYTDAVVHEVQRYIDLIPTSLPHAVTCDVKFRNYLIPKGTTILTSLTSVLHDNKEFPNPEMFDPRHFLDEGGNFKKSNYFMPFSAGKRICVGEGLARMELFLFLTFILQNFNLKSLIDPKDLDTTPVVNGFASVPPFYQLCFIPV
Chain of FAD-linked sulfhydryl oxidase ALR (P55789 whole entry): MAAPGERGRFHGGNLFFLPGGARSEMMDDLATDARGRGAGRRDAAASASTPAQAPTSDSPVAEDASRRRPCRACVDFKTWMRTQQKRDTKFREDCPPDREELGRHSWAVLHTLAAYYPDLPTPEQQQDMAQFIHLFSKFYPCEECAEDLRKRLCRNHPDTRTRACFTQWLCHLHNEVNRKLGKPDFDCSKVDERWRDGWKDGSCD
Chain of Cytochrome P450 3A4 (P08684 whole entry): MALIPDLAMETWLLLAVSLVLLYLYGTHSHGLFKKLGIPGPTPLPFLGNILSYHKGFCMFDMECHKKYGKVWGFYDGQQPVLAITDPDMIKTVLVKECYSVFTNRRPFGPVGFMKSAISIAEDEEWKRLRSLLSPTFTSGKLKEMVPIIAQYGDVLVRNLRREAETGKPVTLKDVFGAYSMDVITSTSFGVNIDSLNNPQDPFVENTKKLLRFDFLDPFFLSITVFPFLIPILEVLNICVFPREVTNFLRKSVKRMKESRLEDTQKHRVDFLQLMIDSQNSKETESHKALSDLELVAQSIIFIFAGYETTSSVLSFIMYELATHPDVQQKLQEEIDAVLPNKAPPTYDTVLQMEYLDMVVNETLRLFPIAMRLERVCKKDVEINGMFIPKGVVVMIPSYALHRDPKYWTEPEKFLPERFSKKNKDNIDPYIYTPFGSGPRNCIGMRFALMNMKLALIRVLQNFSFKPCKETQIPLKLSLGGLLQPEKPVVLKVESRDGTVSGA
Chain of Cytochrome P450 2C9 (P11712 whole entry): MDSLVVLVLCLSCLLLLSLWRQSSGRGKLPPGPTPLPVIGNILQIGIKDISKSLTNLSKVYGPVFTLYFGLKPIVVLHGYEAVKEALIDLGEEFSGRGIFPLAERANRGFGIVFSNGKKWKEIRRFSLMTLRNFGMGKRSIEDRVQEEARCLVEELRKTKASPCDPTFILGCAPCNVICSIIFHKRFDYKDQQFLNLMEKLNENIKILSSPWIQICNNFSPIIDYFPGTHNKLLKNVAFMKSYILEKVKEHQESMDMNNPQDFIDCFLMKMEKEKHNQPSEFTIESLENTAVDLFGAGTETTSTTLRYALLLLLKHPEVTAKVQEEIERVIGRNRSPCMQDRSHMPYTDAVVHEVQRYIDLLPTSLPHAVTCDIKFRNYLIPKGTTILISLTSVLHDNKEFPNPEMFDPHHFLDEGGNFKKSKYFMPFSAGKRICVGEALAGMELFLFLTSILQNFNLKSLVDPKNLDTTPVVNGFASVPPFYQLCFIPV
Chain of Cytochrome P450 2D6 (P10635 whole entry): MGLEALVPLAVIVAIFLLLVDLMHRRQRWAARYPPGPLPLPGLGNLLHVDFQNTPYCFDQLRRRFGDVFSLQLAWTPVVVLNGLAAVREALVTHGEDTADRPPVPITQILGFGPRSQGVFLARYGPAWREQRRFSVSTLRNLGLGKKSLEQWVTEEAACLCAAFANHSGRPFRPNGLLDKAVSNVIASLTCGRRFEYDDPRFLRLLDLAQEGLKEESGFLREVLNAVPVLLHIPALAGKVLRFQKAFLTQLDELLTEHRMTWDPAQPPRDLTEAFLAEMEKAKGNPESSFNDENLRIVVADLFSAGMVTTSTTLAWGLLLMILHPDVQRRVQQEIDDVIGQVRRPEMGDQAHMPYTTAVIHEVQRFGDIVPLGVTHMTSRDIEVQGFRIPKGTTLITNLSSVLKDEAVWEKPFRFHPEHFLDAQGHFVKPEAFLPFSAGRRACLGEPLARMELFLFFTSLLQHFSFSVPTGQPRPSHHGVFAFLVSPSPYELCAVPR
Chain of Luciferin 4-monooxygenase (P08659 whole entry): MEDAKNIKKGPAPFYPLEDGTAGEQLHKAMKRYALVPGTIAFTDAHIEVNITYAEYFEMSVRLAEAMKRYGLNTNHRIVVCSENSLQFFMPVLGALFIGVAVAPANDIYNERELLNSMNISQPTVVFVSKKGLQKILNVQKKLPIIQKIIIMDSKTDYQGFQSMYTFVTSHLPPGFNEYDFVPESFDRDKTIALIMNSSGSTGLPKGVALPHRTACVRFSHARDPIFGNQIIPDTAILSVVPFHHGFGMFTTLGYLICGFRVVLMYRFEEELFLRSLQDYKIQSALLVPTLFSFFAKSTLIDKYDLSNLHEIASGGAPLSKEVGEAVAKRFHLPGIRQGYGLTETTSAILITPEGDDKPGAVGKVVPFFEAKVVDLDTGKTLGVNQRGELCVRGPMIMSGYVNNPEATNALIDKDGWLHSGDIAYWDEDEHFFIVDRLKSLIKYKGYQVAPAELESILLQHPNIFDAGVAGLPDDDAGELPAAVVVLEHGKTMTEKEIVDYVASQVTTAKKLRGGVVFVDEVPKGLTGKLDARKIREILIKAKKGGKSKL

SMILES: CCn1c(N=NO)nc2ccccc21
- EC50 [1]: 21.9 µM (active)
- AC50 [2]: 1.83 µM (active)
- EC50 [3]: > 38 µM (not active)

SMILES: CC1(c2ccccc2)CC(C)(C)N(C(=O)CSc2nnc(N)s2)c2ccccc21 (centres undefined)
- CC50 [4]: 22.9 µM (active)

SMILES: CCOc1ccc2nc(O)c(O)nc2c1
- CC50 [4]: 45.8 µM (active)

SMILES: CCc1cc2c(nc1CC)CCN(CC/C(C)=N/OC)C2
- AC50 [5]: 3.16 µM (inconclusive)
- AC50 [6]: 3.16 µM (inconclusive)

SMILES: c1ccc2c(C3=NN=C(NC4CC4)SC3)c[nH]c2c1
- EC50 [7]: > 260 µM (inactive)
- EC50 [8]: 20.2 µM (active)
- EC50 [9]: > 112 µM (not active)

SMILES: COc1ccccc1-c1ccc2ncnc(NCc3cnc(C)cn3)c2c1
- AC50 [5]: 39.8 µM (inconclusive)
- AC50 [10]: 39.8 µM (inconclusive)
- AC50 [6]: 10 µM (inconclusive)

SMILES: CC(C)(C)C1CCC(OC(=O)C[N+]2(C)CCCCC2)CC1 (centres undefined)
- EC50 [1]: 18.1 µM (active)
- EC50 [3]: > 38 µM (not active)

SMILES: COc1ccc(CN(C(=O)CSc2nnc(-c3ccccc3F)o2)c2ccc(F)cc2)cc1
- CC50 [4]: 23.1 µM (active)

SMILES: COc1ccc(-c2cc(CCCC(=O)NCCc3ccc(OC)cc3OC)no2)cc1
- AC50 [5]: 1.12 µM (active)
- AC50 [11]: 0.562 µM (active)
- EC50 [7]: > 260 µM (inactive)
- AC50 [10]: 1.41 µM (active)
- AC50 [12]: 0.562 µM (active)

SMILES: CCN(CC)c1cccc(OC2=NS(=O)(=O)c3ccccc32)c1
- EC50 [1]: > 150 µM (inactive)
- EC50 [3]: 5.06 µM (active)

SMILES: CCCn1c(=N)n(CC(=O)c2ccco2)c2ccccc21
- AC50 [11]: 10 µM (inconclusive)
- AC50 [6]: 35.5 µM (inconclusive)

SMILES: CS(=O)(=O)N(CC(=O)Nc1c(F)cccc1F)c1ccc(C23CC4CC(CC(C4)C2)C3)cc1
- AC50 [5]: 4.47 µM (inconclusive)
- AC50 [6]: 15.8 µM (inconclusive)
- EC50 [13]: 10.6 µM (active)
- EC50 [14]: 2.25 µM (active)

SMILES: Cc1cc(O)nc2c(C)cc(S(=O)(=O)Nc3ccc(O)cc3)cc12
- AC50 [15]: 1.3 µM (active)

SMILES: O=C(NCc1cccnc1)c1ccc(-c2cccc(Cl)c2Cl)o1
- EC50 [1]: > 38 µM (inactive)
- EC50 [3]: > 38 µM (not active)
- EC50 [13]: > 60 µM (not active)
- EC50 [14]: 0.92 µM (active)

SMILES: COc1ccccc1N1CCN(Cc2nc(N)nc(Nc3ccc(C)c(Cl)c3)n2)CC1
- EC50 [16]: 20.4 µM (active)
- CC50 [4]: 19.6 µM (active)
- EC50 [17]: > 150 µM (inconclusive)
- EC50 [18]: 10.7 µM (active)

SMILES: CCCCC(=O)OCc1cn(-c2ccc(Cl)cc2)nn1
- AC50 [5]: 25.1 µM (inconclusive)
- AC50 [10]: 2.24 µM (inconclusive)
- AC50 [6]: 39.8 µM (inconclusive)

SMILES: Cc1cc(Cl)ccc1NNC(=O)c1snnc1C
- EC50 [1]: 16.8 µM (inconclusive)
- EC50 [3]: 1.59 µM (active)

SMILES: N=c1ccn(Cc2ccc(Cl)cc2Cl)cc1
- AC50 [2]: 7.25 µM (active)

SMILES: Cc1ccc(S(=O)(=O)NNC(=O)c2ccc(NC(=O)C3CC3)cc2)cc1
- EC50 [1]: > 150 µM (inactive)
- EC50 [3]: 12.7 µM (active)

SMILES: CCc1ccc(NC(=O)CN2C(=O)CSC2=O)cc1
- AC50 [15]: 1.2 µM (active)

SMILES: NC(=NO)c1cn(Cc2ccccc2Cl)c2ccccc12
- AC50 [15]: 0.488 µM (active)

SMILES: N#Cc1cccc(NC(=O)N2CC[C@@]3(CCCN(C(=O)c4ccco4)C3)C2)c1
- AC50 [6]: 20 µM (inconclusive)

SMILES: COc1ccc(OC)c(C(c2nnnn2C2CCCC2)N2CCc3ccccc3C2)c1 (centres undefined)
- CC50 [4]: 24 µM (active)

SMILES: COc1ccc(Br)cc1C(=O)Nc1ccc(O)cc1
- AC50 [15]: 2.75 µM (active)

SMILES: CCN1CCCC1CNC(=O)C1c2cc(OC)c(OC)cc2C(=O)N(C)C1c1cccnc1 (centres undefined)
- AC50 [10]: 1.12 µM (inconclusive)
- AC50 [6]: 5.62 µM (inconclusive)
- AC50 [12]: 1.78 µM (inconclusive)

SMILES: CNC(=O)[C@H]1O[C@H](n2cnc3c(NCc4cccc(I)c4)ncnc32)[C@@H](O)[C@@H]1O
- AC50 [6]: 31.6 µM (inconclusive)

SMILES: COc1ccc(N2CCN(C(CNC(C)=O)c3ccc4c(c3)OCO4)CC2)cc1 (centres undefined)
- AC50 [15]: 4.58 µM (active)

SMILES: Cc1ccc(O)c(NC(=O)C2CCCN2C(=O)OCc2ccccc2)c1 (centres undefined)
- AC50 [15]: 8.89 µM (active)

SMILES: NC(=O)C1=C[C@@H](c2csc3ccccc23)C[C@@H](OCc2ccc(CO)cc2)O1
- CC50 [4]: 15.5 µM (active)

SMILES: Cc1ccc(/C=C/c2onc(C)c2S(=O)(=O)N2CCC(C(=O)N3CCCCC3)CC2)cc1
- CC50 [4]: > 50 µM (active)

SMILES: O=C(CN1CCN(S(=O)(=O)c2ccccc2)CC1)Nc1ccc2c(c1)CCC2
- EC50 [1]: > 150 µM (inactive)
- EC50 [3]: > 38 µM (not active)

SMILES: CCOc1cc(S(=O)(=O)NCc2ccccc2)c(OCC)cc1-n1cnnn1
- EC50 [1]: > 150 µM (inconclusive)
- EC50 [3]: 3.34 µM (active)

SMILES: Cc1oncc1-c1csc(-c2ccccc2)n1
- CC50 [4]: 36.5 µM (active)

SMILES: CCN(CCNC(=O)c1ccc(C#N)cc1)c1cccc(C)c1
- AC50 [15]: 1.75 µM (active)

SMILES: O=C(NCCc1ccccc1)C(=O)NCC1(c2ccccc2)CCCC1
- AC50 [10]: 39.8 µM (inconclusive)
- AC50 [6]: 3.16 µM (inconclusive)

SMILES: NC(=O)NC(=O)CSc1nnc(-c2ccco2)n1Cc1ccccc1
- AC50 [6]: 25.1 µM (inconclusive)
- AC50 [12]: 12.6 µM (inconclusive)

SMILES: COc1ccc(Br)cc1/C=N/Nc1ccc(Cl)c(C(=O)O)c1
- AC50 [15]: 6.26 µM (active)

SMILES: COc1nc(Oc2ccc(/C=N/O)cc2)nc(N(C)C)n1
- AC50 [5]: 22.4 µM (inconclusive)
- AC50 [10]: 17.8 µM (inconclusive)
- AC50 [15]: 2.99 µM (active)

SMILES: Cc1[nH]c2ccccc2c1/C=N/O
- AC50 [15]: 20.2 µM (active)
